In patent EP0062321A2, “New cephem compounds, processes for their preparation, pharmaceutical compositions containing them and their starting compounds” (FUJISAWA PHARMACEUTICAL CO., LTD., priority 1981, dated 1982):
Values after ≈ are worked out from the molar mass of the structure shown.

Experiments:
[1] = system: Pr.mirabilis 140; test: Minimal inhibitory concentration (MIC) by agar dilution on heart infusion agar; type: cell-based; details: Proteus mirabilis, HI-agar, one loopful of overnight culture in Trypticase-soy broth (10 viable cells per ml), 37°C for 20 hours
Procedure: (§1) Now in order to show the utility of the object compounds (I), test data on anti-microbial activity of representative compounds of the present invention are shown below.
(§2) One loopful of an overnight culture of each test strain in Trypticase-soy broth (10 viable cells per ml,) was streaked on heart infusion agar (HI-agar) containing graded concentrations of antibiotics, and the minimal inhibitory concentration (MIC) was expressed in terms of µg/ml after incubation at 37°C for 20 hours.

[2] = system: Pr.vulgaris IAM-1025; test: as above; type: cell-based; details: Proteus vulgaris, IAM1025, HI-agar, one loopful of overnight culture in Trypticase-soy broth (10 viable cells per ml), 37°C for 20 hours
Procedure: as §1, §2

MIC [1] [µg/mL]	MIC [2] [µg/mL]	SMILES
0.39 (≈ 0.792 µM)	0.78 (≈ 1.58 µM)	CCO/N=C(\C(=O)NC1C(=O)N2C(C(=O)[O-])=C(C[n+]3cccn3C)CSC12)c1nsc(N)n1 (stereo not drawn) [(1)]
0.39 (≈ 0.795 µM)	0.39 (≈ 0.795 µM)	CCO/N=C(\C(=O)NC1C(=O)N2C(C(=O)[O-])=C(C[n+]3ccccn3)CSC12)c1nsc(N)n1 (stereo not drawn) [(2)]
0.39 (≈ 0.818 µM)	6.25 (≈ 13.1 µM)	CO/N=C(\C(=O)NC1C(=O)N2C(C(=O)[O-])=C(C[n+]3ccccn3)CSC12)c1nsc(N)n1 (stereo not drawn) [(3)]
